Laboratory results taken from patent US20180116999A1, “METHODS OF TREATING FIBROTIC DISEASES USING TETRAHYDROCANNABINOL-11-OIC ACIDS” (Corbus Pharmaceuticals, Inc., priority 2011, published 2018).
Entries after “also recorded” stand apart in the source; their conditions may differ. Read-outs that look alike come from different tables or passages of the source.

How the values were obtained:
[1] = tested on: SSc fibroblasts; assay: Collagen (PIP) concentration in supernatant of SSc fibroblasts; type: cell-based, human; details: for reversal of AjA inhibitory effect on PIP/collagen production by PPAR-γ antagonist: antagonist 10 μM, pre-incubation 15 minutes before AjA
[2] = tested on: SSc and healthy fibroblasts; assay: Cell viability (MTT assay); type: cell-based, human; details: AjA in concentrations up to 10 pM (so in the source), 24 hours, data not shown
Description: SSc and healthy fibroblasts were plated at a density of 100000 cells/well in 24 well plate and treated with AjA at concentrations of 0.1, 1, 5 and 10 μM for 24 hours in presence or absence of GW9662 at concentrations of 1 and 10 μM. Cell metabolic activity was measured by 3-(4,5-dimethylthiazol-2-yl)-2,5-diphenyltetrazolium bromide (MTT) assay. After removal of 100 μl of the growth medium, MTT was added at a final concentration of 3 mg/ml, and the cells were incubated at 37° C. for an additional 4 hours. Formazan crystals were dissolved in DMSO and optical density was measured at 570 nm using a spectrophotometer.

[3] = tested on: PPAR-γ; assay: PPAR-γ expression by Western blot in SSc fibroblasts; type: cell-based, human; details: AjA 5 microM and 10 microM
Description: (§1) SSc and healthy dermal fibroblasts were cultured in DMEM containing 2.5% of fetal calf serum (FCS) for 24 hours before the experiments. Dermal fibroblasts were incubated with AjA (JB Therapeutics, Newton, Mass., USA), dissolved in dimethyl sulfoxide at 0.1, 1, 5 and 10 microM concentrations for 24 hours. Experiments with the PPAR-γ irreversible antagonist GW9662 (Tocris Bioscience, Bristol, UK), 1 and 10 microM, were performed by incubating dermal fibroblasts for 15 minutes before AjA treatment.
After rinsing twice with PBS, cells were lysed with Ripa buffer (Santa Cruz Biotechnology, Santa Cruz, Calif., USA). Subsequently, cell lysates were incubated on ice for 30 minutes and centrifuged at 14,000 g for 20 minutes. Protein concentrations were measured using the Bradford assay (Bio-Rad, Reinach, Switzerland). […] After incubation with horseradish peroxidase (HRP)-conjugated donkey anti-goat antibodies Santa Cruz Biotechnology) at a dilution of 1:10000 for 45 minutes, signals were detected with ECL Western Blotting Detection Reagents (Amersham Bioscience, Freiburg, Germany) and exposure to x-ray film (SuperRX; Fuji, Dusseldorf, Germany). For confirmation of equal loading of proteins, the amount of alpha-tubulin was determined using mouse anti-human a-tubulin antibodies (dilution 1:1,000; Sigma) and HRP-conjugated rabbit anti-mouse antibodies (dilution 1:5000; Santa Cruz). […]

[4] = tested on: TGF-beta; assay: TGF-beta supernatant levels (ELISA) of SSc fibroblasts; type: cell-based, human
Description: as §1
(§2) The supernatant was collected and stored at −20° C. prior to and after AjA±GW9662 treatment. An EIA kit (Takara Bio, Otsu, Japan) and ELISA kit (Euroclone, Lugano, Switzerland) were used to assess the procollagen type I carboxy-terminal peptide (PIP) and TGF-β and PGJ2 supernatant levels, respectively. Results are mean±SD of five separate experiments.

[5] = tested on: embryogenic fibroblastic 3T3 L1 cells; details: process mediated by PPAR-γ; cited from earlier work
[6] = molecular target: CB2 receptor (Homo sapiens, UniProt P34972); details: cited from earlier work
CB2 receptor, sequence (P34972 whole entry): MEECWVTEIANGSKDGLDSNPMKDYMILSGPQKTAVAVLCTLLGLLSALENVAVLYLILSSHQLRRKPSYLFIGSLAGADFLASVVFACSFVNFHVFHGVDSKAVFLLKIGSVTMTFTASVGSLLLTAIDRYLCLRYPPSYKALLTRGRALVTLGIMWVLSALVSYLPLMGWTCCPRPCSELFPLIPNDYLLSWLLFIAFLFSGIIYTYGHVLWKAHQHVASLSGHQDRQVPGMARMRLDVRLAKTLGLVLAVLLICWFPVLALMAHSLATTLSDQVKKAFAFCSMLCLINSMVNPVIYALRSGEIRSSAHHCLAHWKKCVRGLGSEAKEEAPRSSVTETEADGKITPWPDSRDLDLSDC

[7] = tested on: 15d-PGJ2; assay: 15d-PGJ2 supernatant levels (ELISA) of SSc fibroblasts; type: cell-based, human; details: incubation with AjA
Description: as §1, §2

[8] = tested on: humans; details: doses up to 80 mg/day, cited from earlier work
[9] = tested on: bleomycin-induced lung fibrosis; assay: Bleomycin lung fibrosis, Day 21 histology of lung; type: in vivo
[10] = tested on: bleomycin-induced dermal fibrosis in DBA/2J mice; assay: Bleomycin-induced dermal fibrosis; type: in vivo
Description: Skin fibrosis was induced in two groups of 6-week old DBA/2J mice by local injection of bleomycin. Briefly, 100 microliter of BLM dissolved in 0.9% NaCI at a concentration of 0.5 mg/ml were administered every other day, in well defined areas (1 cm^2) of the upper back. One group of BLM-challenged mice received orally AjA 1 mg/kg/day, dissolved in seed oil. Subcutaneous injections of 100 ul 0.9% NaCI were used as controls. After 21 days, animals were killed by cervical dislocation. The injected skin was removed and processed for analysis. Each treatment group consisted of eight mice. The local ethical committee approved all animal experiments. […].
Three lesional skin samples were taken from every animal of each group and 5 μm skin sections (three for each skin sample) were stained with haematoxylin and eosin. Dermal thickness was calculated at 10× microscopic magnification by measuring the distance between the dermal—epidermal junction and the dermal—subcutaneous fat junction (micrometer) in five randomly selected fields for each skin section. Results were expressed as mean±SD. Two different examiners performed the evaluation blindly.
The collagen content of lesional skin was evaluated by colourimetric quantification of hydroxyproline on three different skin biopsies (3 mm punch) taken from every animal in each group. 15 Absorbencies were measured at 560 nm in triplicate. The results were expressed as μg of hydroxyproline per biopsy (mean±SD).
Skin sections (5 μm) were processed in order to evaluate expression of a smooth muscle actin (α-SMA) (mouse monoclonal antibody) (Santa Cruz Biotechnology, Santa Cruz, Calif., USA) After deparaffinization, skin sections were incubated with 3% bovine serum albumin for 30 minutes to block nonspecific binding, followed by incubation with 3% H2O2 for 5 minutes to block endogenous peroxidase activity. A-SMA staining was performed according to the protocol of manufacturer using M.O.M kit (Vector, UK). Staining was visualized with diaminobenzidine, using a peroxidase substrate kit (Dako, Glostrup Denmark). Cell counts were performed blindly by two different operators, at 40× magnification, in five non-contiguous microscope fields of three sections from each lesional skin sample. Results are expressed as mean±SD of positive spindle-shaped fibroblastic cells per field.

[11] = molecular target: T1, peroxisome proliferated-activated receptor-γ (PPAR-γ) (Homo sapiens, UniProt P37231); details: cited from earlier work
T1 sequence (P37231 1-505): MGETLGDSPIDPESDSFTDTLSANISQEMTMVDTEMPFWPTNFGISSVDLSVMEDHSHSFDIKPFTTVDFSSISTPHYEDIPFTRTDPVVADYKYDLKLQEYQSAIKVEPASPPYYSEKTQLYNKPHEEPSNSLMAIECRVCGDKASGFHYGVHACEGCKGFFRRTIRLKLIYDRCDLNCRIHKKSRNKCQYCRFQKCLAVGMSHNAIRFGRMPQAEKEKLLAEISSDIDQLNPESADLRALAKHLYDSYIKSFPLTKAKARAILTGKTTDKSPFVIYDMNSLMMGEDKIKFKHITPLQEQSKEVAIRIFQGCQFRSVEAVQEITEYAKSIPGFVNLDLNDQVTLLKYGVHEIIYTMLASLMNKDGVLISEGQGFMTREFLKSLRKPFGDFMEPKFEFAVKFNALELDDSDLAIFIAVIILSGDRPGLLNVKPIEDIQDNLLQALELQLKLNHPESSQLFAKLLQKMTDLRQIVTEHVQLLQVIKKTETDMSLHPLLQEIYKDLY

[12] = molecular target: CB1 receptor (Homo sapiens, UniProt P21554); details: cited from earlier work
CB1 receptor, sequence (P21554 whole entry): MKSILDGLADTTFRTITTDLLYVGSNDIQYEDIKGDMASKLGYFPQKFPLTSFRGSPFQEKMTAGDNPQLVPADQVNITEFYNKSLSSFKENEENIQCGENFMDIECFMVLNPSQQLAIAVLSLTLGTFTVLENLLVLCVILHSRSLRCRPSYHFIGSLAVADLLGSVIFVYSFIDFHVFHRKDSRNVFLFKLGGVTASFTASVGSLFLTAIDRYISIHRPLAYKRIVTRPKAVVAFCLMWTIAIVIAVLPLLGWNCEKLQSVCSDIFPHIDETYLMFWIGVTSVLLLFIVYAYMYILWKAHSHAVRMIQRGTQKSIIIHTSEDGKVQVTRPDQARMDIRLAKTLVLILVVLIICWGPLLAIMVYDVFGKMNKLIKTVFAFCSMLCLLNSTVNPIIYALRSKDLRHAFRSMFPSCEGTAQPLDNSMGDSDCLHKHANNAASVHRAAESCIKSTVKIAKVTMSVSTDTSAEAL

[13] = AjA 10 pM (so in the source), SSc fibroblasts
[14] = listed as (6aR,10aR)-4-(1,1-dimethylheptyl)-Δ8-tetrahydro-cannabinol-9-carboxylic acid
[15] = AjA 1 mg/kg/day, BLM-challenged mice
[16] = AjA 1 mg/kg/day, after treatment

In the case of `O=C(Nc1ccccc1)c1cc([N+](=O)[O-])ccc1Cl` [GW9662, reference compound], the “reversal of AjA inhibitory effect on PIP/collagen production by PPAR-γ antagonist” value ([1]; SSc fibroblasts) is reported as “completely reverted”, the “reversal of AjA inhibitory effect on PIP/collagen production by PPAR-γ antagonist” value ([1]; SSc fibroblasts, listed as GW966) is reported as “completely prevented the anti-fibrotic effects of AjA” and the “prevention of AjA inhibitory effect on collagen production by PPAR-γ antagonist, dose dependence” value ([1]; antagonist 1-10 μM pre-incubation) is reported as “prevented by GW9662 in a dose-dependent manner”.
With `CCCCCCC(C)(C)c1cc(O)c2c(c1)OC(C)(C)[C@@H]1CC=C(C(=O)O)C[C@@H]21` [AjA, (6aR,10aR)-3-(1,1-dimethylheptyl)-6a,7,10,10a-tetrahydro-1-hydroxy-6,6-dimethyl-6H-Dibenz o(b,d)pyran-9-carboxylic acid] the “supernatant PIP levels, dose dependence” value ([1]; AjA 0.1, 1, 5 and 10 μM, 24 hours, SSc fibroblasts) was “dose-dependently decreased the levels of PIP; also recorded: dose-dependent reduction of supernatant PIP levels”, the inhibition at 10 µM ([1]; Homo sapiens, Fibroblast, AjA 10 μM, 24 hours, SSc fibroblasts supernatant, read-out: mean PIP reduction (maximal inhibition)) was at most 60% and the “metabolic activity measured by the MTT assay” value [2] was “not affected”. The “PPAR-γ protein expression in SSc fibroblasts” value [3] was “completely restored the expression of PPAR-γ”, the “duration of significant TGF-beta downregulation” value [4, 13] was at most 24 h and the “time of maximum TGF-beta inhibition” value [4, 13] was 2 h. The “supernatant TGF-beta” value ([4]; AjA 5 and 10 microM, SSc fibroblasts) was “significant reduction of supernatant TGF-beta”, the “time of maximum TGF-beta suppression” value ([4]; SSc fibroblasts, AjA) was 2 h and the “reduction in TGF-beta concentrations in supernatants from SSc fibroblasts” value ([4]; incubation with AjA, dose-dependent) was “up to 50%”. The “differentiation of 3T3 L1 cells into adipocytes” value [5] was “stimulates the differentiation of embryogenic fibroblastic 3T3 L1 cells into adipocytes”, the “affinity for CB2 receptor” value [6] was “weak ligand” and the “affinity for CB2 receptor” value [6, 14] was “high affinity”. For the same compound, the “levels of 15d-PGJ2 in supernatants of SSc fibroblasts” value [7] was “strongly increased the levels of 15d-PGJ2 in dose-dependent manner”, the tolerability in humans ([8]; without significant psychotropic effects) was “well tolerated” and the “chronic neuropathic pain in humans” value [8] was “can reduce chronic neuropathic pain”. The “lung fibrosis (histology)” value ([9]; AjA 1 and 5 mg/kg qd x 21 d, bleomycin) was “fibrosis was significantly inhibited”, the “parenchymal infiltration of leukocytes in lung” value ([9]; AjA qd x 21 d, more evident in the 5 mg/kg group) was “parenchymal infiltration of leukocytes was reduced” and the “dermal thickness of lesional skin” value ([10]; AjA 1 mg/kg/day orally, 21 days, BLM-challenged DBA/2J mice) was “reduced skin thickness nearly to control levels; also recorded: dermal thickness was equal to control group”. For the same compound, the “hydroxyproline content of lesional skin (collagen deposition)” value ([10]; AjA 1 mg/kg/day, 21 days, BLM-challenged mice) was “completely abrogated the collagen deposition induced by BLM; also recorded: dermal thickness was equal to control group”, the “alpha-SMA positive cells, immunohistochemistry” value [10, 15] was “strong downregulation of alpha-SMA positive cells” and the “leukocyte infiltration, ECM accumulation and fat layer replacement in lesional skin (histology)” value [10, 15] was “the subcutaneous leukocyte infiltration, the accumulation of ECM and the fat layer replacement were reduced; also recorded: strongly reduced the leukocyte infiltration”. For the same compound, the “reduction of number of myofibroblasts (α-SMA positive spindle-shaped fibroblastic cells) in lesional skin” value [10, 15] was “up to 26%”, the “body weight, BLM/AjA group vs BLM group” value [10, 16] was “did not differ in terms of body weight” and the “signs of toxicity (ruffled fur, reduced activity)” value [10, 16] was “no other signs of toxicity”. For the same compound, the “binding to and activation of PPAR-γ” value [11] was “binds to and activates”, the “affinity for CB1 receptor” value [12] was “weak ligand” and the “affinity for CB1 receptor” value [12, 14] was “high affinity”.
